Experiments:
[1] = system: GL261 cells; assay: Percent viability of GL261 cells treated with TMZ or iCHEK1/2; format: cell-based, mouse
[2] = system: GL261 cells; assay: Western blot of DNA damage in GL261 cells; format: cell-based, mouse; conditions: 8 nM, 48 h of treatment, compared to TMZ or untreated GL261 cells
[3] = system: GL261 cells; assay: Expression of MHC-I and PDL1 in GL261 cells; format: cell-based, mouse; conditions: 8 nM, 3 cycles (48 h/cycle), compared to TMZ or untreated
[4] = system: GL261 intracranial gliomas; assay: PD1+ T cells in brain and spleen of GL261 intracranial tumor bearing mice by flow cytometry; format: in vivo, C57BL/6 mice; conditions: 10 mg/kg i.p. on 7th and 9th day, sacrificed on 13th day

SMILES	concentration at which viability of the GL261 cells started to be affected [1]	DNA damage signal (western blot) [2]	expression of MHC-I (both MHC class and PDL1) [3]	activated T-cells pool in the peripheral compartment (spleen) [4]	percentage of PD1+ T cells in the brain ([4]; compared to TMZ or vehicle)	concentration leading to a decrease in viability of glioma cells ([1]; treatment for 72 h)
COc1cccc(OCCCN)c1-c1cc(Nc2cnc(C#N)cn2)n[nH]1 [iCHEK1/2, Prexasertib]	less than 0.08 nM	intense signal of DNA damage	increased expression of MHC-I	no significant difference	decrease in the percentage of PD1+ T cells	
Cn1nnc2c(C(N)=O)ncn2c1=O [TMZ, temozolomide]						500 µM

Source: patent publication US20210145965A1, “METHOD OF USING CHECKPOINT KINASE INHIBITOR THERAPY TO MODULATE ANTI-TUMORAL RESPONSE AGAINST CANCER AND SENSITIZE GLIOMAS TO IMMUNOTHERAPY” (NORTHWESTERN UNIVERSITY, priority 2019, published 2021)
